As for `NS(=O)(=O)c1cccc(-c2cccc(-c3nc(-c4ccc(C(F)(F)F)cc4)cc(C(F)(F)F)n3)n2)c1` [Example 364, 3-{6-[4-Trifluoromethyl-6-(4-trifluoromethyl-phenyl)-pyrimidin-2-yl]-pyridin-2-yl}-benzenesulfonamide], the melting point is 244 °C (dec.). `Nc1ccc(-c2cc(-c3nc(-c4ccc(Cl)cc4)cc(C(F)(F)F)n3)ccn2)cn1` [Example 30, 4-[4-(4-Chloro-phenyl)-6-trifluoromethyl-pyrimidin-2-yl]-[2,3′]bipyridinyl-6′-ylamine] yielded a melting point of 227 °C. In turn, `CONS(=O)(=O)c1cccc(-c2cccc(-c3cc(-c4ccc(C(F)(F)F)cc4)cc(C)n3)c2)c1` [Example 258, 3′-[6-Methyl-4-(4-trifluoromethyl-phenyl)-pyridin-2-yl]-biphenyl-3-sulfonic acid methoxy-amide] showed a melting point of 181 °C. As for `Nc1ccc(-c2cccc(-c3cc(-c4ccc(C(F)(F)F)cc4)cc(C4CC4)n3)c2)cn1` [Example 64, 5-{3-[6-Cyclopropyl-4-(4-trifluoromethyl-phenyl)-pyridin-2-yl]-phenyl}-pyridin-2-ylamine], the melting point is 130 to 135 °C. Turning to `Nc1ccc(-c2nc(-c3nc(-c4ccc(Cl)cc4)cc(C(F)(F)F)n3)no2)cn1` [Example 22, 5-{3-[4-(4-Chloro-phenyl)-6-trifluoromethyl-pyrimidin-2-yl]-[1,2,4]oxadiazol-5-yl}-pyridin-2-ylamine], the melting point stood at 191 °C. For `Cc1cc(-c2ccc(C(F)(F)F)cc2)cc(-c2cccc(-c3cccc(S(=O)(=O)N4CCC(O)CC4)c3)n2)n1` [Example 427, 1-{3-[6′-Methyl-4′-(4-trifluoromethyl-phenyl)-[2,2′]bipyridinyl-6-yl]-benzenesulfonyl}-piperidin-4-ol], the melting point is 195 °C. Next, `Cc1cc(-c2ccc(Cl)c(Cl)c2)nc(-n2cnc(-c3cnc(N)nc3)c2)n1` [Example 144, 5-{1-[4-(3,4-Dichloro-phenyl)-6-methyl-pyrimidin-2-yl]-1H-imidazol-4-yl}-pyrimidin-2-ylamine]: 255.5 °C; `Nc1ccc(-c2cccc(-c3cc(-c4ccc(Cl)cc4)cc(C(F)(F)F)n3)c2)cn1` [Example 235, 5-{3-[4-(4-Chloro-phenyl)-6-trifluoromethyl-pyridin-2-yl]-phenyl}-pyridin-2-ylamine]: 172 °C. With `Cc1cc(-c2ccc(C(F)(F)F)cc2)cc(-c2cccc(-c3cccc(S(=O)(=O)NC(=O)C(C)C)c3)n2)n1` [Example 455, N-Isobutyryl-3-[6′-methyl-4′-(4-trifluoromethyl-phenyl)-[2,2′]bipyridinyl-6-yl]-benzenesulfonamide], the melting point amounted to 190 °C. Next, `Cc1cc(-c2ccc(C(F)(F)F)cc2)cc(-n2cnc(-c3ccc(N)nc3)c2)n1` [Example 58, 5-{1-[6-Methyl-4-(4-trifluoromethyl-phenyl)-pyridin-2-yl]-1H-imidazol-4-yl}-pyridin-2-ylamine]: 224 to 226 °C; `Cc1cc(-c2ccc(Cl)c(Cl)c2)nc(-c2cccc(-c3ccc(S(N)(=O)=O)s3)c2)n1` [Example 195, 5-{3-[4-(3,4-Dichloro-phenyl)-6-methyl-pyrimidin-2-yl]-phenyl}-thiophene-2-sulfonic acid Amide]: 238 °C. Next, `Cc1cc(-c2ccc(C(F)(F)F)cc2)cc(-c2cccc(-c3ccncc3)c2)n1` [Example 79, 2-Methyl-6-(3-pyridin-4-yl-phenyl)-4-(4-trifluoromethyl-phenyl)-pyridine]: 143 to 147 °C. In turn, `CC(C)(C)NS(=O)(=O)c1cnc(-c2cn(-c3cc(C(F)(F)F)cc(-c4ccc(C(F)(F)F)cc4)n3)cn2)s1` [Example 281, 2-{1-[4-Trifluoromethyl-6-(4-trifluoromethyl-phenyl)-pyridin-2-yl]-1H-imidazol-4-yl}-thiazole-5-sulfonic acid tert-butylamide] gave a melting point of 236 °C. `FC(F)(F)c1ccc(-c2cc(C(F)(F)F)nc(-n3cccc3)n2)cc1` [Example 4, 2-Pyrrol-1-yl-4-trifluoromethyl-6-(4-trifluoromethyl-phenyl)-pyrimidine] came in with a melting point of 120.5 °C. Next, `Cc1cc(-c2ccc(C(F)(F)F)cc2)cc(-c2ccc(-c3ccc(N)nc3)s2)n1` [Example 252, 5-{5-[6-Methyl-4-(4-trifluoromethyl-phenyl)-pyridin-2-yl]-thiophen-2-yl}-pyridin-2-ylamine]: 196 °C; `Cc1cc(-c2ccc(C(F)(F)F)cc2)cc(-c2cccc(-c3cccc(S(=O)(=O)N4CCN(C)CC4)c3)n2)n1` [Example 370, 6-Methyl-6′-[3-(4-methyl-piperazine-1-sulfonyl)-phenyl]-4-(4-trifluoromethyl-phenyl)-[2,2′]bipyridinyl]: 167 °C (dec.); `CCNS(=O)(=O)c1cccc(-c2cccc(-c3cc(-c4ccc(C(F)(F)F)cc4)cc(C)n3)n2)c1` [Example 446, N-Ethyl-3-[6′-methyl-4′-(4-trifluoromethyl-phenyl)-[2,2′]bipyridinyl-6-yl]-benzenesulfonamide]: 135 °C. Next, `NS(=O)(=O)c1cccc(-c2cccc(-c3cc(-c4ccc(C(F)(F)F)cc4)cc(CO)n3)n2)c1` [Example 439, 3-[6′-Hydroxymethyl-4′-(4-trifluoromethyl-phenyl)-[2,2′]bipyridinyl-6-yl]-benzenesulfonamide]: 213 °C (dec.); `Cc1cc(-c2ccc(C(F)(F)F)cc2)nc(-n2cnc(-c3cccnc3)c2)n1` [Example 48, 4-Methyl-2-(4-pyridin-3-yl-imidazol-1-yl)-6-(4-trifluoromethyl-phenyl)-pyrimidine]: 208 to 210 °C. In turn, `Cc1cc(-c2ccc(Cl)c(Cl)c2)nc(-n2cnc(-c3cccc(S(C)(=O)=O)c3)c2)n1` [Example 214, 4-(3,4-Dichloro-phenyl)-2-[4-(3-methanesulfonyl-phenyl)-imidazol-1-yl]-6-methyl-pyrimidine] showed a melting point of 213 °C. The molecule `Nc1ccc(-c2cccc(-c3nc(-c4ccc(C(F)(F)F)cc4)cc(C(F)F)n3)c2)cn1` [Example 41, 5-{3-[4-Difluoromethyl-6-(4-trifluoromethyl-phenyl)-pyrimidin-2-yl]-phenyl}-pyridin-2-ylamine] yielded a melting point of 191 °C. On to `Cc1cc(-c2ccc(Cl)cc2)nc(-c2cccc(-c3cnc(N)nc3)c2)n1` [Example 110, 5-{3-[4-(4-Chloro-phenyl)-6-methyl-pyrimidin-2-yl]-phenyl}-pyrimidin-2-ylamine], for which the melting point is 228 °C. `Cc1cc(-c2ccc(Cl)cc2)nc(-c2cccc(-c3ccc(N)nc3)c2)n1` [Example 109, 5-{3-[4-(4-Chloro-phenyl)-6-methyl-pyrimidin-2-yl]-phenyl}-pyridin-2-ylamine] came in with a melting point of 168.5 °C.

In turn, `Cc1cc(-c2ccc(C(F)(F)F)cc2)nc(-c2ccnc(-c3cccc(S(N)(=O)=O)c3)c2)n1` [Example 168, 3-{4-[4-Methyl-6-(4-trifluoromethyl-phenyl)-pyrimidin-2-yl]-pyridin-2-yl}-benzenesulfonamide] showed a melting point of 218.5 °C. For `Cc1cc(-c2cc(C(F)(F)F)nc(-n3cnc(-c4cnc(N)nc4)c3)n2)ccc1C(F)(F)F` [Example 125, 5-{1-[4-(3-Methyl-4-trifluoromethyl-phenyl)-6-trifluoromethyl-pyrimidin-2-yl]-1H-imidazol-4-yl}-pyrimidin-2-ylamine], the melting point amounted to 297 °C. Regarding `NS(=O)(=O)c1cccc(-c2cccc(-c3nc(-c4ccc(C(F)(F)F)c(OCC(F)(F)F)c4)cc(C(F)(F)F)n3)c2)c1` [Example 447, 3′-{4-[3-(2,2,2-Trifluoro-ethoxy)-4-trifluoromethyl-phenyl]-6-trifluoromethyl-pyrimidin-2-yl}-biphenyl-3-sulfonic acid amide], the melting point came to 188 °C. Next, `Cc1cc(-c2cc(C(F)(F)F)nc(-n3cnc(-c4cccc(S(N)(=O)=O)c4)c3)n2)ccc1C(F)(F)F` [Example 213, 3-{1-[4-(3-Methyl-4-trifluoromethyl-phenyl)-6-trifluoromethyl-pyrimidin-2-yl]-1H-imidazol-4-yl}-benzenesulfonamide]: 180 °C; `CCc1cc(-c2ccc(C(F)(F)F)cc2)cc(-c2cccc(-c3cnc(N)nc3)c2)n1` [Example 260, 5-{3-[6-Ethyl-4-(4-trifluoromethyl-phenyl)-pyridin-2-yl]-phenyl}-pyrimidin-2-ylamine]: 209 °C. Next, `NS(=O)(=O)c1ccc(-c2cccc(-c3nc(-c4ccc(Cl)c(Cl)c4)cc(C(F)(F)F)n3)c2)s1` [Example 204, 5-{3-[4-(3,4-Dichloro-phenyl)-6-trifluoromethyl-pyrimidin-2-yl]-phenyl}-thiophene-2-sulfonic acid amide]: 203 °C. Turning to `NS(=O)(=O)c1cccc(-c2noc(-c3nc(-c4ccc(Cl)cc4)cc(C(F)(F)F)n3)n2)c1` [Example 18, 3-{5-[4-(4-Chloro-phenyl)-6-trifluoromethyl-pyrimidin-2-yl]-[1,2,4}oxadiazol-3-yl]-benzenesulfonamide], the melting point came out at 231 °C. Next, `Cc1cc(-c2ccc(Cl)c(Cl)c2)cc(-c2cccc(-c3cnc(N)nc3)c2)n1` [Example 250, 5-{3-[4-(3,4-Dichloro-phenyl)-6-methyl-pyridin-2-yl]-phenyl}-pyrimidin-2-ylamine]: 188 °C; `NS(=O)(=O)c1cccc(-c2cn(-c3cc(-c4ccc(C(F)(F)F)cc4)cc(C(F)(F)F)n3)cn2)c1` [Example 296, 3-{1-[6-Trifluoromethyl-4-(4-trifluoromethyl-phenyl)-pyridin-2-yl]-1H-imidazol-4-yl}-benzenesulfonamide]: greater than 250 °C; `Cc1cc(-c2cc(C(F)(F)F)nc(-c3cccc(-c4ccc(S(N)(=O)=O)s4)c3)n2)ccc1C(F)(F)F` [Example 207, 5-{3-[4-(3-Methyl-4-trifluoromethyl-phenyl)-6-trifluoromethyl-pyrimidin-2-yl]-phenyl}-thiophene-2-sulfonic acid amide]: 216 °C.

(Values after patent US8183262B2, “Pyridine derivatives as mGluR2 antagonists” (Hoffmann-La Roche Inc., priority 2007, dated 2012).)
